Assay results reported in patent publication US20100144737A1, “METHODS FOR INHIBITING T HELPER CELL DIFFERENTIATION” (FibroGen, Inc., priority 2008, published 2010).

Legend:
naïve CD4+T Cells = assay: T helper cell synthesis of pro-inflammatory (IFN-γ) and anti-inflammatory (IL-5) cytokines; format: cell-based, human; conditions: seven days
Description: To examine the effect of compounds and methods of the present invention on T helper cell synthesis of pro-inflammatory and anti-inflammatory cytokines, the following studies were performed. Human cord blood naive CD4+T Cells (AllCells LLC, Emeryville, Calif.) were stimulated (i.e., T cell receptor (TCR) stimulation) by seeding into 96-well culture dishes coated with 5 μg/ml anti-CD3 antibody (clone UCHT1, R&D Systems, Minneapolis, Minn.), and 5 μg/ml anti-CD28 antibody (clone ANC28.1/D10, Ancell Corporation, Bayport, Minn.), and cultured at 37° C., 5% CO2 in RPMI-1640 (Mediatech Inc., Hemdon, Va.) containing 1% FBS, 1 U/ml penicillin-1 μg/ml streptomycin (Invitrogen Corporation, Carlsbad, Calif.), and 50 U/ml IL-2 (Roche Diagnostics Corporation, Indianapolis, Ind.). At time of seeding, cells were treated according to one of the following conditions: 1) media alone (Con); 2) 10 ng/ml IL4, 10 μg/ml anti-IFN-γ antibody, and 10 μg/ml anti-IL-12 antibody (R&D Systems, Minneapolis, Minn.); or 3) 2 ng/ml IL-12 and 10 μg/ml anti-IL-4 antibody. […] The cell-conditioned media was collected and analyzed for IFN-γ levels (a pro-inflammatory cytokine) and IL-5 levels (an anti-inflammatory cytokine) using MS2400 Human Tissue Culture Kits (MesoScale Technologies, Gaithersburg, Md.) according to the manufacturer's instructions.

[1] = test system: activated T cells (PMBCs); assay: IFN-γ and TNF-α levels ex vivo following T cell activation in vivo (peptidoglycan-polysaccharide polymer injection); parameters: species or system Lewis rats; conditions: 40 mg/kg oral gavage, days 28-44; PMBCs isolated day 44, anti-CD3, 72 h, ELISA
Description: The effect of methods and compounds of the present invention on INF-γ and TNF-α expression following in vivo activation was examined as follows. In these experiments, in vivo T cell activation was first induced by eliciting an inflammatory reaction in rats by injection of peptidoglycan-polysaccharide polymers. An exemplary compound of the present invention was then administered to the animals. T cells were then isolated from the blood of the animals and analyzed ex vivo for IFN-γ and TNF-α secretion. Female Lewis rats (150-200 gm; Harlan, Indianapolis, Ind.) were injected intra-peritoneal with peptidoglycan-polysaccharide polymers (15 μg/gm body weight, Lee Laboratories, Grayson, Ga.). Animals were administered Compound A (40 mg/kg) via oral gavage on days 28, 30, 32, 35, 37, 39, 42, and 44 following peptidoglycan-polysaccharide polymer injection. Peripheral blood mononuclear cells (PMBCs) were isolated from the blood of the animals by Ficol gradient (BD Vacutainer CPT tubes) on day 44. Equal numbers of PMBCs (50,000 cells/well) were plated on culture dishes coated with anti-CD3 antibodies in RPMI-1640 media containing 10% serum, and the cells were cultured for 72 h. Supernatants from the cell cultures were tested for IFN-γ and TNF-α levels using commercially-available ELISA assays (R&D).

Naive T helper cells = assay: Secretion of pro-inflammatory cytokines (IFN-γ, TNF-α) from TCR-stimulated T helper cells, conditioned media; format: cell-based, human; conditions: seven days
Description: The effect of methods and compounds of the present invention on T helper cell secretion of pro-inflammatory cytokines was evaluated as follows. Naive T helper cells (AllCells LLC, Emeryville, Calif.) obtained from human cord blood were stimulated (i.e., T cell receptor (TCR) stimulation) by seeding into 96-well culture dishes coated with 5 μg/ml anti-CD3 antibody (clone UCHT1, R&D Systems, Minneapolis, Minn.) (Tanaka et.al. (1989) J Immunol 142:2791-2795.), and 5 μg/ml anti-CD28 antibody (clone ANC28.1/D10, Ancell Corporation, Bayport, Minn.), and cultured at 37° C., 5% CO2 in RPMI-1640 (Mediatech Inc., Herndon, Va.) containing 1% FBS, 1 U/ml penicillin-1 μg/ml streptomycin (Invitrogen Corporation, Carlsbad, Calif.), and 50 U/ml IL-2 (Roche Diagnostics Corporation, Indianapolis, Ind.). At the time of seeding, cells were cultured with media alone or with media containing 2 ng/ml IL-12 (R&D Systems, Minneapolis, Minn.) (to stimulate differentiation of the T helper cells into Th1 cells) and 10 μg/ml anti-IL4 antibody (R&D Systems, Minneapolis, Minn.) (to block differentiation of the T helper cells into Th2 cells). Compound A or 1% DMSO (Veh) was added to the existing media and the cells were cultured for an additional seven days. The conditioned media was then collected from the cell cultures and analyzed for interferon-gamma (IFN-γ) and tumor necrosis factor-alpha (TNF-α) levels using MS2400 Human Tissue Culture Cytokine Detection Kits (MesoScale Technologies, Gaithersburg, Md.) according to the manufacturer's instructions. In another series of experiments, the effect of methods and compounds of the present invention on T helper cell secretion of pro-inflammatory cytokines was evaluated as follows. Naive T helper cells were stimulated substantially as described above with the following modification: cell cultures contained 100 U/ml penicillin-100 U/ml streptomycin. Various compounds of the present invention or 1% DMSO (Veh) was added to the existing media and the cells were cultured for an additional six days. Following stimulation with IL-12, conditioned media was then collected from the cell cultures and analyzed for interferon-gamma (IFN-γ) levels using MS2400 Human Tissue Culture Cytokine Detection Kits (MesoScale Technologies, Gaithersburg, Md.) according to the manufacturer's instructions.

[2] = TCR-stimulated T helper cells with 2 ng/ml IL-12 and anti-IL4 antibody, vs IL-12 and vehicle
[3] = TCR-stimulated T helper cells, without IL-12 addition, vs vehicle

In the case of `Cc1nc(C(=O)NCC(=O)O)c(O)c2ccc(Oc3ccccc3)cc12` [Compound A, [(4-Hydroxy-1-methyl-7-phenoxy-isoquinoline-3-carbonyl)-amino]-acetic acid], the “IL-12-mediated increase in IFN-γ secretion” value (naïve CD4+T Cells; 2 ng/ml IL-12 and anti-IL-4 antibody) was “reduced the IL-12-mediated increase in IFN-γ secretion”, the IL-5 levels (naïve CD4+T Cells; 10 ng/ml IL4, anti-IFN-γ and anti-IL-12 antibody, vs IL-4 alone) was “increased IL-5 levels” and the “IFN-γ secretion from the activated T cells, measured ex vivo” value [1] was “effective at decreasing”. For the same compound, the “TNF-α secretion from the activated T cells, measured ex vivo” value [1] was “effective at decreasing”, the “IL-12-induced increase in IFN-γ levels” value (Naive T helper cells; [2]) was “inhibited the increase” and the “IL-12-induced increase in TNF-α levels” value (Naive T helper cells; [2]) was “inhibited the increase”. For the same compound, the “IFN-γ levels in the conditioned media” value (Naive T helper cells; [3]) was “reduction” and the “TNF-α levels in the conditioned media” value (Naive T helper cells; [3]) was “reduction”.
